From PMC2917377 (Cytometry. Part A : the journal of the International …, 2009)
Non-standard residues stand in square brackets, D forms with d. No end group written: not given here. *: point of attachment. Nle = CCCC[C@H](N)C(=O)O; For = O=C*

How the values were obtained:
[1] = molecular target: FPR; conditions: read-out: Kd for FPR; cited from earlier work
[2] = test system: FPRL1; conditions: cited from earlier work
[3] = molecular target: formyl peptide receptor-like 1; conditions: cited from earlier work
[4] = molecular target: WKYMVm; test: competition
[5] = molecular target: T1, WKRMVm; test: competition flow cytometry
T1 chain: WKRMV[dM]

[6] = molecular target: T2, WKGMVm; test: competition flow cytometry
T2 chain: WKGMV[dM]

N-formyl -Met-Leu-Phe-Lys-fluorescein (For-MLFK(fluorescein)) [fMLFK-FITC]
Kd [1]: 3 nM
Binding to FPRL1 [2]: does not bind

W[Nle]YM [WNleYM]
EC50 [3]: 5.34 nM

B1: FPRL1 (protein)
chain: METNFSTPLNEYEEVSYESAGYTVLRILPLVVLGVTFVLGVLGNGLVIWVAGFRMTRTVTTICYLNLALADFSFTATLPFLIVSMAMGEKWPFGWFLCKLIHIVVDINLFGSVFLIGFIALDRCICVLHPVWAQNHRTVSLAMKVIVGPWILALVLTLPVFLFLTTVTIPNGDTYCTFNFASWGGTPEERLKVAITMLTARGIIRFVIGFSLPMSIVAICYGLIAAKIHKKGMIKSSRPLRVLTAVVASFFICWFPFQLVALLGTVWLKEMLFYGKYKIIDILVNPTSSLAFFNSCLNPMLYVFVGQDFRERLIHSLPTSLERALSEDSAPTNDTAANSASPPAETELQAM
IC50 [4]: 1.8 nM
IC50 [5]: 705 nM
IC50 [6]: 176 nM
